Values joined by “and” are separate entries in the source; they are usually repeats but may differ in a detail not shown here. Equal values may be shown once. Inconclusive results and toxic doses are left out.
Test system: P388 leukemia ip, CD2F1 mice, survival T/C
Assay: NCI In Vivo Anticancer Drug Screen. Data for tumor model P388 Leukemia (intraperitoneal) in CD2F1 (CDF1) mice
Conditions: endpoint: median survival time, higher = longer survival
Procedure, shortened: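 Mice carrying the transplanted tumor received test compound or vehicle. Survival was recorded in each group, and the value is the treated-group measurement divided by that of the vehicle-treated control group.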

[1] = dose: 50.0 mg/kg/injection, schedule: Q01DX009 (ip), vehicle: saline with Tween-80
[2] = dose: 100.0 mg/kg/injection, schedule: Q01DX009 (ip), vehicle: saline with Tween-80
[3] = dose: 50.0 mg/kg/injection, schedule: Q01DX009 (ip), vehicle: Klucel (hydroxypropylcellulose) (HPC)
[4] = dose: 100.0 mg/kg/injection, schedule: Q01DX009 (ip), vehicle: Klucel (hydroxypropylcellulose) (HPC)
[5] = dose: 50.0 mg/kg/injection, schedule: Q01DX005 (ip), vehicle: saline with Tween-80
[6] = dose: 60.0 mg/kg/injection, schedule: Q01DX005 (ip), vehicle: Klucel (hydroxypropylcellulose) (HPC)
[7] = dose: 120.0 mg/kg/injection, schedule: Q01DX005 (ip), vehicle: Klucel (hydroxypropylcellulose) (HPC)
[8] = dose: 240.0 mg/kg/injection, schedule: Q01DX005 (ip), vehicle: Klucel (hydroxypropylcellulose) (HPC)
[9] = dose: 100.0 mg/kg/injection, schedule: Q01DX009 (ip), vehicle: saline
[10] = dose: 200.0 mg/kg/injection, schedule: Q01DX009 (ip), vehicle: saline
[11] = dose: 200.0 mg/kg/injection, schedule: Q01DX009 (ip), vehicle: Klucel (hydroxypropylcellulose) (HPC)

O=S1(=O)CC2(N3CCOCC3)CCCCCC21 (configuration not stated)
T/C (dose: 100.0 mg/kg/injection, schedule: Q04DX003 (ip), vehicle: saline with Tween-80): 103 % of control
T/C (dose: 200.0 mg/kg/injection, schedule: Q04DX003 (ip), vehicle: saline with Tween-80): 100 % of control
T/C (dose: 400.0 mg/kg/injection, schedule: Q04DX003 (ip), vehicle: saline with Tween-80): 100 % of control

COc1ccc(NC(CCN2CCCCC2)=NC(C)(C)C)cc1
T/C [1]: 110 % of control
T/C [2]: 104 % of control
T/C (dose: 200.0 mg/kg/injection, schedule: Q01DX009 (ip), vehicle: saline with Tween-80): 101 % of control

COc1ccc(Cc2ccc[nH]2)cc1
T/C (dose: 100.0 mg/kg/injection, schedule: Q01DX001 (ip), vehicle: distilled water + alcohol): 97 % of control
T/C (dose: 200.0 mg/kg/injection, schedule: Q01DX001 (ip), vehicle: distilled water + alcohol): 97 % of control
T/C (dose: 400.0 mg/kg/injection, schedule: Q01DX001 (ip), vehicle: distilled water + alcohol): 96 % of control

COc1ccc(/C=N\N=C(/[O-])c2ccccc2O)cc1.COc1ccc(/C=N\N=C(/[O-])c2ccccc2O)cc1.[Co+2]
T/C (dose: 50.0 mg/kg/injection, schedule: Q04DX002 (ip), vehicle: saline with Tween-80): 93 % of control
T/C (dose: 100.0 mg/kg/injection, schedule: Q04DX002 (ip), vehicle: saline with Tween-80): 98 % of control
T/C (dose: 200.0 mg/kg/injection, schedule: Q04DX002 (ip), vehicle: saline with Tween-80): 96 % of control

CN(C)c1cc(N(C)C)c2cc(Cl)ccc2n1
T/C [3]: 106 % of control
T/C [4]: 100 % of control

CC(C)c1nnc2cc3oc4ccccc4c3cc2c1N
T/C (dose: 6.25 mg/kg/injection, schedule: Q01DX005 (ip), vehicle: saline with Tween-80): 100 % of control
T/C (dose: 12.5 mg/kg/injection, schedule: Q01DX005 (ip), vehicle: saline with Tween-80): 96 % of control
T/C (dose: 25.0 mg/kg/injection, schedule: Q01DX005 (ip), vehicle: saline with Tween-80): 106 % of control
T/C [5]: 106 % of control

CC(C)(C)n1nc(C2CC2)c(Br)c1NC(=O)c1ccccc1Cl
T/C (dose: 30.0 mg/kg/injection, schedule: Q01DX005 (ip), vehicle: Klucel (hydroxypropylcellulose) (HPC)): 106 % of control
T/C [6]: 109 % of control
T/C [7]: 105 % of control
T/C [8]: 100 % of control

c1cc2c(ccc3c4c([nH]c32)CCCC4)cn1
T/C (dose: 12.5 mg/kg/injection, schedule: Q01DX009 (ip), vehicle: saline with Tween-80): 101 % of control
T/C (dose: 25.0 mg/kg/injection, schedule: Q01DX009 (ip), vehicle: saline with Tween-80): 105 % of control
T/C [1]: 99 % of control
T/C [2]: 98 % of control

CC1=NNC(C)(C)C1
T/C [9]: 105 % of control
T/C [10]: 105 % of control
T/C (dose: 400.0 mg/kg/injection, schedule: Q01DX009 (ip), vehicle: saline): 110 % of control

Cc1c(Cl)cccc1N=Cc1cccs1
T/C [3]: 105 % of control
T/C [4]: 105 % of control
T/C [11]: 105 % of control

COc1cccc2c1C(=O)c1c(O)c3c(c(O)c1C2=O)C[C@@](O)(C(O)CO)C[C@@H]3OC1CC(N)C(O)C(C)O1 (some centres not stated)
T/C (dose: 0.78 mg/kg/injection, schedule: Q01DX009 (ip), vehicle: water): 155 % of control and 150 % of control
T/C (dose: 1.56 mg/kg/injection, schedule: Q01DX009 (ip), vehicle: water): 174 % of control and 168 % of control
T/C (dose: 2.0 mg/kg/injection, schedule: Q01DX009 (ip), vehicle: water): 183 % of control
T/C (dose: 3.13 mg/kg/injection, schedule: Q01DX009 (ip), vehicle: water): 192 % of control and 200 % of control
T/C (dose: 4.0 mg/kg/injection, schedule: Q01DX009 (ip), vehicle: water): 211 % of control
T/C (dose: 6.25 mg/kg/injection, schedule: Q01DX009 (ip), vehicle: water): 260 % of control and 197 % of control and 264 % of control
T/C (dose: 6.25 mg/kg/injection, schedule: Q04DX003 (ip), vehicle: water): 116 % of control
T/C (dose: 8.0 mg/kg/injection, schedule: Q01DX009 (ip), vehicle: water): 266 % of control
T/C (dose: 12.5 mg/kg/injection, schedule: Q01DX009 (ip), vehicle: water): 95 % of control
T/C (dose: 16.0 mg/kg/injection, schedule: Q01DX009 (ip), vehicle: water): 94 % of control
T/C (dose: 25.0 mg/kg/injection, schedule: Q04DX003 (ip), vehicle: water): 198 % of control
T/C (dose: 50.0 mg/kg/injection, schedule: Q04DX003 (ip), vehicle: water): 172 % of control

CC(Sc1ccccn1)C(=O)c1ccccc1 (configuration not stated)
T/C [5]: 102 % of control
T/C (dose: 100.0 mg/kg/injection, schedule: Q01DX005 (ip), vehicle: saline with Tween-80): 109 % of control
T/C (dose: 200.0 mg/kg/injection, schedule: Q01DX005 (ip), vehicle: saline with Tween-80): 102 % of control

O=C1Nc2c(cccc2-c2ccccc2)C(=O)C1(O)c1ccccc1 (configuration not stated)
T/C [6]: 97 % of control
T/C [7]: 94 % of control
T/C [8]: 90 % of control

Cn1c(=O)c2nc(-c3ccc(Cl)cc3)oc2n(C)c1=O
T/C (dose: 50.0 mg/kg/injection, schedule: Q01DX009 (ip), vehicle: saline): 104 % of control
T/C [9]: 100 % of control
T/C [10]: 102 % of control

O=c1[nH]nnc2c1ncn2C1OC(CO)C(O)C1O (configuration not stated)
T/C (dose: 12.5 mg/kg/injection, schedule: Q01DX001 (ip), vehicle: saline): 99 % of control
T/C (dose: 25.0 mg/kg/injection, schedule: Q01DX001 (ip), vehicle: saline): 106 % of control
T/C (dose: 50.0 mg/kg/injection, schedule: Q01DX001 (ip), vehicle: saline): 100 % of control
T/C (dose: 100.0 mg/kg/injection, schedule: Q01DX001 (ip), vehicle: saline): 99 % of control

CCN(CC)Cc1c(C)[nH]c2cc(N(C)C)ccc2c1=O
T/C [3]: 96 % of control
T/C [4]: 97 % of control

Cc1cc(Cl)nc2c1ccn2C1OC(CO)C(O)C1O (configuration not stated)
T/C (dose: 32.0 mg/kg/injection, schedule: Q01DX001 (ip), vehicle: saline): 100 % of control
T/C (dose: 64.0 mg/kg/injection, schedule: Q01DX001 (ip), vehicle: saline): 100 % of control
T/C (dose: 128.0 mg/kg/injection, schedule: Q01DX001 (ip), vehicle: saline): 102 % of control

CCCCCCCCC(=O)C(=O)c1ccc(O)c(C)c1O
T/C [3]: 112 % of control
T/C [4]: 109 % of control
T/C [11]: 110 % of control

CCCCCCCCCCCCCCCC[N+]1(CC)CCCCC1
T/C (dose: 0.59 mg/kg/injection, schedule: Q01DX009 (ip), vehicle: saline): 121 % of control
T/C (dose: 0.78 mg/kg/injection, schedule: Q01DX009 (ip), vehicle: saline): 89 % of control

Nc1nc(=S)c2ncn(C3OC(COC(=O)c4ccccc4)C(OC(=O)c4ccccc4)C3OC(=O)c3ccccc3)c2[nH]1 (configuration not stated)
T/C (dose: 4.4 mg/kg/injection, schedule: Q01DX009 (ip), vehicle: saline with Tween-80): 109 % of control
T/C (dose: 6.6 mg/kg/injection, schedule: Q01DX009 (ip), vehicle: saline with Tween-80): 113 % of control
T/C (dose: 10.0 mg/kg/injection, schedule: Q01DX009 (ip), vehicle: saline with Tween-80): 122 % of control
T/C (dose: 44.0 mg/kg/injection, schedule: Q04DX003 (ip), vehicle: saline with Tween-80): 108 % of control
T/C [1]: 170 % of control
T/C (dose: 66.0 mg/kg/injection, schedule: Q04DX003 (ip), vehicle: saline with Tween-80): 116 % of control
T/C [2]: 90 % of control

Clc1ncn[nH]1
T/C (dose: 100.0 mg/kg/injection, schedule: Q01DX001 (ip), vehicle: Klucel (hydroxypropylcellulose) (HPC)): 99 % of control
T/C (dose: 200.0 mg/kg/injection, schedule: Q01DX001 (ip), vehicle: Klucel (hydroxypropylcellulose) (HPC)): 106 % of control
T/C (dose: 400.0 mg/kg/injection, schedule: Q01DX001 (ip), vehicle: Klucel (hydroxypropylcellulose) (HPC)): 122 % of control

COc1cc2c(c(OC)c1OC)-c1ccc(OC)c(=O)cc1[C@@H](N(C)C(C)=O)CC2
T/C (dose: 0.31 mg/kg/injection, schedule: Q01DX009 (ip), vehicle: Klucel (hydroxypropylcellulose) (HPC)): 157 % of control and 187 % of control
T/C (dose: 0.62 mg/kg/injection, schedule: Q01DX009 (ip), vehicle: Klucel (hydroxypropylcellulose) (HPC)): 181 % of control

O=C1OCCCOC(=O)c2cc(ccc2O)OCC#CC#CCOc2ccc(O)c1c2
T/C (dose: 60.0 mg/kg/injection, schedule: Q01DX005 (ip), vehicle: saline with Tween-80): 92 % of control
T/C (dose: 120.0 mg/kg/injection, schedule: Q01DX005 (ip), vehicle: saline with Tween-80): 97 % of control
T/C (dose: 240.0 mg/kg/injection, schedule: Q01DX005 (ip), vehicle: saline with Tween-80): 97 % of control

— PubChem BioAssay AID330 (DTP/NCI, 2004)
